Laboratory results: article PMC6847237 (2019)
Each block holds one molecule with its values, some of them ahead of it.

Tests used:
[1] = system: (UCAACAGUUGA)2 (RNA, mismatch bulge abasic) UCAACAGUUGA; assay: UV melting at 260 nm, median method; settings: 100 mM NaCl; 10 mM sodium cacodylate pH 7.0, 2% DMSO; RNA 5 μM, CMBL3a 20 μM
[2] = system: (CAG)9 (RNA, repeat) CAGCAGCAGCAGCAGCAGCAGCAGCAG; assay: CD titration at 347.5 nm; settings: 100 mM NaCl, 10 mM sodium cacodylate pH 7.0, ambient temperature, RNA 2.5 μM, 1:2 binding isotherm
[3] = system: (CCG)9 (5'-biotinylated, immobilized) (RNA, repeat) CCGCCGCCGCCGCCGCCGCCGCCGCCG; assay: SPR single cycle kinetics; settings: 150 mM NaCl; 10 mM HEPES pH 7.4, 3 mM EDTA, 0.005% P20, 5% DMSO; highest tested 0.5 μM
[4] = system: (GCAGCAGC)2 (RNA, mismatch bulge abasic) GCAGCAGC; assay: X-ray crystallography; settings: RNA 0.75 mM, RNA:ligand 1:2 mixed
[5] = system: (CAG)9 (5'-biotinylated, immobilized) (RNA, repeat) CAGCAGCAGCAGCAGCAGCAGCAGCAG; assay: SPR single cycle kinetics; settings: 150 mM NaCl; 10 mM HEPES pH 7.4, 3 mM EDTA, 0.005% P20, 5% DMSO; 0.1-0.5 μM ligand
[6] = system: (CGG)9 (5'-biotinylated, immobilized) (RNA, repeat) CGGCGGCGGCGGCGGCGGCGGCGGCGG; assay: SPR single cycle kinetics; settings: 150 mM NaCl; 10 mM HEPES pH 7.4, 3 mM EDTA, 0.005% P20, 5% DMSO; highest tested 0.5 μM
[7] = system: GCAG(2′-SeCH3-C)AGC (RNA, mismatch bulge abasic, 2'-methylseleno cytidine at 5) GCAGCAGC; assay: X-ray crystallography (SAD); settings: 5 mM MgCl2; TRIS pH 7.5, 30% PEG 400; RNA 0.75 mM, RNA:ligand 1:2 mixed

- binding [1]: yes
- apparent Kd [2]: 70.5 µM
- binding [3]: no
- binding ([4]; 10 mM MgCl2, 1 M Li2SO4, cacodylate pH 6.0): yes
- binding [5]: yes
- binding [6]: no
- binding [7]: yes
SMILES: O=C1Nc2ccc3ccc(nc3n2)CNCc2ccc3ccc(nc3n2)NC(=O)OCC/C=C/CCO1

- binding ([4]; 20 mM magnesium acetate, 1.7 M ammonium sulfate, cacodylate pH 6.0): yes
SMILES: O=C1Nc2ccc3ccc(nc3n2)CNCc2ccc3ccc(nc3n2)NC(=O)OCC/C=C\CCO1

- binding ([4]; 2 mM MgCl2, 5 mM hexamine cobalt chloride, MOPS pH 7.0, Tacsimate): yes
SMILES: O=C1Nc2ccc3ccc(nc3n2)CNCc2ccc3ccc(nc3n2)NC(=O)OCCCNCCCO1
